Measurements published in ChEMBL document CHEMBL4177651, “RNA as a small molecule druggable target” (Bioorg Med Chem Lett, 2017).
Blank lines part the entries; values can stand above or below the compound they belong to.

Columns and labels:
[1] = Binding affinity to Aspergillus oryzae RNA TPP riboswitch after 40 hrs by SDS-PAGE analysis; conditions: read-out: Kd(app)
[2] = Binding affinity to 1A1 Bacillus subtilis 179 lysC RNA lysine riboswitch by probing analysis; conditions: read-out: Kd(app)
Quadruplex DNA = assay: Binding affinity to biotin-labeled c-Myc Pu22 G-quadruplex DNA (unknown origin) assessed as […] by surface plasmon resonance assay; assay type: nucleic-acid assay
[3] = Inhibition of [gamma-32P]ATP labelled (CUG)4 RNA (unknown origin) binding to recombinant His6-tagged MBNL1N (1 to 272 residues) after 10 -15 mins incubation in presence of tRNA by SDS-PAGE analysis
Hepatitis C virus = assay: Antiviral activity against Hepatitis C virus genotype 1b infected in BM4-5 FEO replicon cells after 48 hrs by bright-glo luciferase reporter gene assay; assay type: functional, organism-based, Hepacivirus hominis; conditions: BM4-5, 48 h
[4] = Binding affinity to 1A1 Bacillus subtilis xpt-pbuX RNA guanine riboswitch; conditions: read-out: Kd(app)
[5] = Inhibition of poly(CUG) RNA (unknown origin) splicing expressed in human Hela cells assessed as decrease in toxicity after 24 hrs by WST-1 assay; assay type: cell-based
[6] = Inhibition of poly(CUG) RNA (unknown origin) binding to recombinant N-terminal PL-MBNL1 preincubated for 30 mins followed by protein addition after 1 hr in presence of tRNA by enzyme fragment complementation assay
[7] = Binding affinity to Bacillus subtilis ribD RNA FMN riboswitch after 40 to 48 hrs by SDS-PAGE analysis; conditions: read-out: Kd(app)
[8] = Binding affinity bacterial RNA purine riboswitch sequence by isothermal titration calorimetry; design: species or system Bacteria; conditions: read-out: Kd(app)

Compound: Cc1ncc(C[n+]2cccc(CCO)c2C)c(N)n1
Kd [1]: 20 nM

Compound: NCCS(=O)(=O)C[C@H](N)C(=O)O
Kd [2]: 2500 nM

Compound: ONc1ncnc2[nH]cnc12
Kd [4]: 20 nM

Compound: Nc1cccc(-c2nc3cc(-c4ccc5[nH]c(-c6cccc(N)c6)nc5c4)ccc3[nH]2)c1
Ki [5]: 50 µM

Compound: O=C(Nc1ccc(-c2nc3ccccc3[nH]2)cc1)c1ccc(-c2ccc(Cl)cc2)o1
Ki [5]: 128 µM

Compound: Nc1nc(N)c2nc[nH]c2n1 [2,6-DIAMINOPURINE]
Kd [8]: 4 nM

Now from value to compound:

Kd (Quadruplex DNA): 4.5 µM
Compound: Cc1ccc(NC(=O)c2c(C)oc3ccc(O)c(CN4CCCCCC4)c23)cc1

Ki [3]: 52 µM
Compound: COc1ccc2nc3cc(Cl)ccc3c(NCCCCNc3nc(N)nc(N)n3)c2c1

IC50 (Hepatitis C virus): 10 µM
Compound: CC(=O)c1ccc(C(=O)N[C@@H](CCCCN)C(=O)N2C[C@H](N)C[C@H](N)C2)cc1

Ki [6]: 3000 nM
Compound: CN(C(=O)[C@@H]1CCCN1C(=O)c1ccc2c(c1)OCO2)[C@@H](CS)C(=O)N[C@@H](CCCCN)C(=O)NCCCN

Kd [7]: 100 nM
Compound: Cc1cc2nc3c(=O)[nH]c(=O)nc-3n(C[C@@H](O)[C@@H](O)[C@@H](O)CO)c2cc1N(C)C
